Laboratory results taken from paper PMC7156724, “Potent BRD4 inhibitor suppresses cancer cell-macrophage interaction” (Nature Communications, 2020).

How the values were obtained:
Settings in all cases: in % (unit assumed)
[1] = Metabolic stability assay, human liver microsomes
Experimental: (§1) 7. Metabolic stability assay. The metabolic profile of NHWD-870 was determined using mouse, rat, dog, monkey, and human liver microsomes using the protocols […]
(§2) No. Compound ID Exat Mass Stock Conc.
(§3) 1) 100 mM potassium phosphate buffer, PH7.4; 2) 10mM MgCI2
(§4) 1) Intermediate solution: Dilute 5 μL of compound or control from stock solution (10 mM) with 45 uL DMSO,then mixed with 450 μL 1:1 Methanol/Water (Conc.: 10 0 […]
(§5) 2) Working solution: Dilute 50 μL from intermediate solution with 450 μL 100 mM potassium phosphate buffer (Conc.: 10 μM, 4.5%MeOH)
(§6) (3) NADPH regenerating system (final Isocitric dehydrogenase conc.= 1 unit/mL at […]
(§7) 1) β-Nicotinamide adenine dinucleotide phosphate, Vendor: sigma Cat. No. N0505
(§8) 2) Isocitric acid, Vendor: Sigma Cat. No. I1252
(§9) 3) Isocitric dehydrogenase, Vendor: sigma Cat. No. I2002
(§10) (4) Liver microsome solution preparation (final concentration o f 0.5 mg protein/mL) […]
(§11) Cold ACN including 100 ng/mL Tolbutamide and 100 ng/mL Labetalol as internal […]
(§12) 1) Add 10 μL compound or control working solution/well to all plates (T0, T5, T10, T20, T30, T60, NCF60) except matrix blank.
(§13) 2) Dispense 680 μL/well microsome solution to 96-well plate as reserv oir according to […]
(§14) plate map. Then add 80 μL/well to every plate by Apricot, incubate the mixture of microsome solution and compound at 37℃ for about 10 min.
(§15) 3) Add 10 μL 100 mM potassium phosphate buffer/well to NCF60, incubate at 37℃, […]
(§16) 4) After pre-warming, dispense 90 μL/well NADPH regenerating system to 96-well plate as reservoir according to the plate map. Then add 10 μL/well to every plate by Apricot to start reaction.
(§17) 5) Incubate at 37℃, start timer 2.
(§18) 6) Add 300 (μL/well) stop solution (cold in 4℃, including 100 ng/mL Tolbutamide and 100 ng/mL Labetalol) to terminate the reaction.
(§19) 7) The sampling plates are shaked for approx 10 min.
(§20) 8) Samples are centrifuged at 4000 rpm for 20 min under 4℃.
(§21) 9) While centrifuging, load 8×new 96-well plate with 300 μL HPLC water, then transfer 100 μL supernatant, mixed for LC/MS/MS.
(§22) Use equation of first order kinetics to calculate t1/2 and Clin t(mic): […]
(§23) Equation of first order kinetics: […]

[2] = Metabolic stability assay, monkey liver microsomes
Experimental: as §1, §2, §3, §4, §5, §6, §7, §8, §9, §10, §11, §12, §13, §14, §15, §16, §17, §18, §19, §20, §21, §22, §23

[3] = Metabolic stability assay, rat liver microsomes
Experimental: as §1, §2, §3, §4, §5, §6, §7, §8, §9, §10, §11, §12, §13, §14, §15, §16, §17, §18, §19, §20, §21, §22, §23

[4] = Metabolic stability assay, dog liver microsomes
Experimental: as §1, §2, §3, §4, §5, §6, §7, §8, §9, §10, §11, §12, §13, §14, §15, §16, §17, §18, §19, §20, §21, §22, §23

In the case of `C[C@]12CC[C@H]3[C@@H](CCC4=CC(=O)CC[C@@]43C)[C@@H]1CC[C@@H]2O` [Testosterone], the “Remaining in Human liver microsomes (Sup Fig.6e)” value (from here on “Remaining … (Sup Fig.6e)”) ([1]; time 0) is reported as 100, the “Remaining … (Sup Fig.6e)” value ([1]; time 5) is reported as 82.349 and the “Remaining … (Sup Fig.6e)” value ([1]; time 10) is reported as 75.006. For the same molecule, the “Remaining … (Sup Fig.6e)” value ([1]; time 20) was 64.528, the “Remaining … (Sup Fig.6e)” value ([1]; time 30) was 50.522 and the “Remaining … (Sup Fig.6e)” value ([1]; time 60) was 21.403. The “Remaining in Monkey liver microsomes (Sup Fig.6d)” value (from here on “Remaining … (Sup Fig.6d)”) ([2]; time 0) was 100, the “Remaining … (Sup Fig.6d)” value ([2]; time 5) was 72.293 and the “Remaining … (Sup Fig.6d)” value ([2]; time 10) was 57.852. For the same molecule, the “Remaining … (Sup Fig.6d)” value ([2]; time 20) was 51.22, the “Remaining … (Sup Fig.6d)” value ([2]; time 30) was 37.184 and the “Remaining … (Sup Fig.6d)” value ([2]; time 60) was 14.336. For the same molecule, the “Remaining in rat liver microsomes (Sup Fig.6b)” value (“Remaining … (Sup Fig.6b)” for short) ([3]; time 0) was 100, the “Remaining … (Sup Fig.6b)” value ([3]; time 5) was 0.549 and the “Remaining … (Sup Fig.6b)” value ([3]; time 10) was 0. For the same molecule, the “Remaining … (Sup Fig.6b)” value ([3]; time 20) was 0, the “Remaining … (Sup Fig.6b)” value ([3]; time 30) was 0 and the “Remaining … (Sup Fig.6b)” value ([3]; time 60) was 0. The “Remaining in Dog liver microsomes (Sup Fig.6c)” value (“Remaining … (Sup Fig.6c)” below) ([4]; time 0) was 100, the “Remaining … (Sup Fig.6c)” value ([4]; time 5) was 51.913 and the “Remaining … (Sup Fig.6c)” value ([4]; time 10) was 27.194. For the same molecule, the “Remaining … (Sup Fig.6c)” value ([4]; time 20) was 14.015, the “Remaining … (Sup Fig.6c)” value ([4]; time 30) was 6.615 and the “Remaining … (Sup Fig.6c)” value ([4]; time 60) was 0.
